Series [1] concerns Human CYP2E1. Conditions: cited from earlier work.
Series [2] concerns the target T1, CYP2E1 (Homo sapiens, UniProt P05181). The series can be described thus: Impact of styrene on acetaminophen oxidation by recombinant CYP2E1. Conditions: 100 µM acetaminophen, styrene 50 to 500 µM.
For series [3], the target named is T1, CYP2E1. The series can be described thus: in vitro. Conditions: recombinant enzyme, pH 7.4.
Series [4] has as its target T1, CYP2E1. Conditions: read-out: Ks; styrene, free enzyme; cited from earlier work.
Series [5] deals with T1, CYP2E1. The series can be described thus: biochemical.

Like-named read-outs stand apart in the source and are kept apart here.

T1 sequence (P05181 whole entry): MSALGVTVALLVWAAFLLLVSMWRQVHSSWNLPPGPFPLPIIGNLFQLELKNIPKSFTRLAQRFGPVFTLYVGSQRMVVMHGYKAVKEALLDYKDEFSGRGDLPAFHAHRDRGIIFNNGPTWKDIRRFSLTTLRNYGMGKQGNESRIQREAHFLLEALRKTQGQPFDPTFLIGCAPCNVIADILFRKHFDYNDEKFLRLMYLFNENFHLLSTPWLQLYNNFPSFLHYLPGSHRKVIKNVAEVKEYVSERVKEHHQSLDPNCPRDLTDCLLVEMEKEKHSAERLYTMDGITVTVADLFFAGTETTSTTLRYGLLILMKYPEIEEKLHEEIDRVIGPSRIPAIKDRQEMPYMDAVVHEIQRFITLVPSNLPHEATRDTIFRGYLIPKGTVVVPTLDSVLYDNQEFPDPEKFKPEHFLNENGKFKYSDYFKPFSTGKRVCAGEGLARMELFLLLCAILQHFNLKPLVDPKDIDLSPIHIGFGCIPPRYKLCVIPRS

By Km is commonly meant the concentration of substrate that gives half-maximal velocity. Turning to `CC(=O)Nc1ccc(O)cc1` [acetaminophen], the Km in series [1] (CYP2E1 expressed in HepG2 cells or purified CYP2E1 in a reconstituted system) was approximately 600 µM; in series [1] (reconstituted CYP2E1 system), 1300 µM.
In general, IC50 refers to the midpoint of a concentration-inhibition curve. Low values mean inhibition by little substance, high ones a need for much substance. As for `C=Cc1ccccc1` [styrene], the “remaining acetaminophen oxidation activity versus prediction” value in series [2] is listed as “greater than would be predicted by simple competition”. Also, the activity in series [3] was determined as 19%. Besides, in series [4], the Kd is 375 µM. The compound also had an IC50 in series [5] of 22 µM.

The record behind these values is PMC5584065 (Biochemical pharmacology, 2015).
